Active and inactive are the calls of the source. The rule behind the calls is not given here.
Key:
Mus musculus [1] = experiment: Antiarthritic activity against collagen-induced arthritis DBA/1J mouse model assessed as reduction in infiltration of F4/80+ macrophage cells in paw at 50 mg/kg, po administered twice daily for 14 days by immunohistochemistry analysis; assay type: functional, organism-based; conditions: time 14.0 day
[2] = molecular target: Dual specificity protein kinase CLK2 (Homo sapiens) (UniProt P49760); experiment: Inhibition of CLK2 (unknown origin) at 1 uM relative to control
[3] = molecular target: Serine/threonine-protein kinase MARK2 (Homo sapiens) (UniProt Q7KZI7); experiment: Inhibition of PAR-1B (unknown origin) at 1 uM relative to control
Sequence of Serine/threonine-protein kinase MARK2 (Homo sapiens) (Q7KZI7 whole entry): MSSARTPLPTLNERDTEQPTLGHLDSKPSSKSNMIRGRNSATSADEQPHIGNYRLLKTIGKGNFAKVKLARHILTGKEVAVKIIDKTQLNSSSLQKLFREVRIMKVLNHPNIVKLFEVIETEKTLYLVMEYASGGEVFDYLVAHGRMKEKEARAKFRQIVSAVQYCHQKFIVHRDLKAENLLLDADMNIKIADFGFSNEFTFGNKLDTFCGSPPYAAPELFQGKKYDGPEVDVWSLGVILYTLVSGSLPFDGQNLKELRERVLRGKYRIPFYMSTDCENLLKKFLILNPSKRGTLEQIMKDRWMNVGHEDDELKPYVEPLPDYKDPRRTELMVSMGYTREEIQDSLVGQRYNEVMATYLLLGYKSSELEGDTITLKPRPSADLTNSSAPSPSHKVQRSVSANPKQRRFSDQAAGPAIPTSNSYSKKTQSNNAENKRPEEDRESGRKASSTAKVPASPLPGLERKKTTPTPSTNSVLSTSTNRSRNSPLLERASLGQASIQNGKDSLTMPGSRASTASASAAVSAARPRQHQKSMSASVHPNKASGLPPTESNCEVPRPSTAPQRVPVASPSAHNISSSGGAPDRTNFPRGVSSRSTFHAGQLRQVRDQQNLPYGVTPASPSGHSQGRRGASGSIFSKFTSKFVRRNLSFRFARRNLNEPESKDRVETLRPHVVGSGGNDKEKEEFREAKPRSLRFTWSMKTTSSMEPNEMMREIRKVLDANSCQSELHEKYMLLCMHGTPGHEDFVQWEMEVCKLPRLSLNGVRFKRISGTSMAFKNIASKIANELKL

Mus musculus [4] = experiment: Antiarthritic activity against collagen-induced arthritis DBA/1J mouse model assessed as M-CSF1 level in serum at 50 mg/kg, po measured for 4 hrs by luminex analysis (reference value: 11.1 +/- 1.3 ng/ml); assay type: functional
[5] = molecular target: Tyrosine-protein kinase TXK (Homo sapiens) (UniProt P42681); experiment: Inhibition of Txk (unknown origin) at 1 uM relative to control
[6] = Oral bioavailability in CD-1 mouse at 5 mg/kg measured upto 24 hrs by LC-MS analysis; assay type: ADME, organism-based; conditions: in vivo
Mus musculus [7] = experiment: Antiarthritic activity against collagen-induced arthritis DBA/1J mouse model assessed as reduction in MMP13 expression at 50 mg/kg, po measured for 4 hrs; assay type: functional, organism-based
[8] = molecular target: Serine/threonine-protein kinase NLK (Homo sapiens) (UniProt Q9UBE8); experiment: Inhibition of NLK (unknown origin) at 1 uM relative to control
[9] = molecular target: Serine/threonine-protein kinase mTOR (Homo sapiens) (UniProt P42345); experiment: Inhibition of mTOR (unknown origin) at 1 uM relative to control
[10] = Volume of distribution at steady state in Sprague-Dawley rat at 1 mg/kg, iv measured upto 8 hrs by LC-MS analysis; assay type: ADME, organism-based; conditions: in vivo, read-out: Vdss
[11] = molecular target: Dual specificity mitogen-activated protein kinase kinase 1 (Homo sapiens) (UniProt Q02750); experiment: Inhibition of MEK1 (unknown origin) at 1 uM relative to control
Sequence of Dual specificity mitogen-activated protein kinase kinase 1 (Homo sapiens) (Q02750 whole entry): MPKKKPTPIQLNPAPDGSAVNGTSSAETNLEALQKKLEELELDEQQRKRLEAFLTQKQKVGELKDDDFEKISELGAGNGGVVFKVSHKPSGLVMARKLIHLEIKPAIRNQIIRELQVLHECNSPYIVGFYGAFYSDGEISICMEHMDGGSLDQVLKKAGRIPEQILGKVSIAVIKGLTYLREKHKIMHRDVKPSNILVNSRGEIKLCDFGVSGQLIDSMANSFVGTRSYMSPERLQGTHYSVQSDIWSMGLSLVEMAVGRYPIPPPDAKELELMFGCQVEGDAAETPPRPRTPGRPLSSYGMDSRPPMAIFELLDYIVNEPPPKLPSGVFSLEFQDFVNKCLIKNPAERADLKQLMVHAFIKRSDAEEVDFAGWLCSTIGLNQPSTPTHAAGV

[12] = molecular target: Focal adhesion kinase 1 (Homo sapiens) (UniProt Q05397); experiment: Inhibition of FAK (unknown origin) at 1 uM relative to control
[13] = molecular target: Serine/threonine-protein kinase Chk2 (Homo sapiens) (UniProt O96017); experiment: Inhibition of CHK2 (unknown origin) at 1 uM relative to control
Mus musculus [14] = experiment: Antiarthritic activity against collagen-induced arthritis DBA/1J mouse model assessed as bone degradation by measuring lesion score in hind paw at 50 mg/kg, po administered twice daily for 14 days by histological analysis; assay type: functional, organism-based; conditions: time 14.0 day
Mus musculus [15] = experiment: Antiarthritic activity against collagen-induced arthritis DBA/1J mouse model assessed as reduction in RANKL expression at 50 mg/kg, po measured for 4 hrs; assay type: functional, organism-based
[16] = molecular target: Mitogen-activated protein kinase 14 (Homo sapiens, UniProt Q16539); experiment: Inhibition of MAPK14 (unknown origin)
[17] = molecular target: Serine/threonine-protein kinase WNK3 (Homo sapiens) (UniProt Q9BYP7); experiment: Inhibition of WNK3 (unknown origin) at 1 uM relative to control
[18] = molecular target: Casein kinase I isoform gamma-2 (Homo sapiens, UniProt P78368); experiment: Inhibition of CSNK1G2 (unknown origin)
Sequence of Casein kinase I isoform gamma-2 (P78368 whole entry, canonical isoform): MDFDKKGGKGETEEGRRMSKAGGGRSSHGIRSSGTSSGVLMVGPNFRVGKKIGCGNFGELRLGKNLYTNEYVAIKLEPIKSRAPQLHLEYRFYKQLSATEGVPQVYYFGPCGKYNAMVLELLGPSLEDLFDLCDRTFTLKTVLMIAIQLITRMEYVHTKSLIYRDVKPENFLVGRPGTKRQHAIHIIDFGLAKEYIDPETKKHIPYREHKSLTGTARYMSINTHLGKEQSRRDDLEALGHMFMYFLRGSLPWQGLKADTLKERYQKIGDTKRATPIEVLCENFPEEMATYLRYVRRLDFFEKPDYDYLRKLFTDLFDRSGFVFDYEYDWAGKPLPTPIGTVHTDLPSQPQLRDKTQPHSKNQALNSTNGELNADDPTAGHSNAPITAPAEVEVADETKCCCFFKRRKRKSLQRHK

[19] = molecular target: Serine/threonine-protein kinase 17A (Homo sapiens) (UniProt Q9UEE5); experiment: Inhibition of DRAK1 (unknown origin) at 1 uM relative to control
[20] = molecular target: Mitogen-activated protein kinase kinase kinase kinase 2 (Homo sapiens, UniProt Q12851); experiment: Inhibition of GCK (unknown origin)
[21] = Tmax in Dark Agouti rat at 3 to 30 mg/kg, po; assay type: ADME, organism-based; conditions: in vivo, dose 3-30 mg/kg
[22] = molecular target: Serine/threonine-protein kinase PLK2 (Homo sapiens) (UniProt Q9NYY3); experiment: Inhibition of Snk (unknown origin) at 1 uM relative to control
Sequence of Serine/threonine-protein kinase PLK2 (Homo sapiens) (Q9NYY3 whole entry, looked up): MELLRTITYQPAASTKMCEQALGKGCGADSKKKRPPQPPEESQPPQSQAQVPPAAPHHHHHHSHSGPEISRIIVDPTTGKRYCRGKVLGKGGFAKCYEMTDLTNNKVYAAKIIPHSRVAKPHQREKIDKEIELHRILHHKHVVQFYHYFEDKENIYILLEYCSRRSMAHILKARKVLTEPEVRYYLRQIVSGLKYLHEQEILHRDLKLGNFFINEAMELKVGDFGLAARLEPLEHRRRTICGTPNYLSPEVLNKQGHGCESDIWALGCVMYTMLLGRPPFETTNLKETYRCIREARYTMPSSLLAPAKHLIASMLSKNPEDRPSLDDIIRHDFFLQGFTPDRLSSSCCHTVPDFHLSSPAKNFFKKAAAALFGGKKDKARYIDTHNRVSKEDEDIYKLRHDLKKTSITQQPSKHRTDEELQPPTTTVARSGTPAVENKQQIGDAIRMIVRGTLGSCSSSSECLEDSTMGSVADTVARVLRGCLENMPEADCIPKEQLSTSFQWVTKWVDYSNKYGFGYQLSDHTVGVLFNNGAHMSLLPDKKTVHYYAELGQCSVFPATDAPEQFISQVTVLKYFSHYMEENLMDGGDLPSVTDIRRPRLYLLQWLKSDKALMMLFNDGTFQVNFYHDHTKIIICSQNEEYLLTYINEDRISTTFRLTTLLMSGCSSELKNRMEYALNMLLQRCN

[23] = molecular target: Cyclin-dependent kinase 1/cyclin B1 (Homo sapiens) (UniProt P06493+P14635); experiment: Inhibition of CDK1/cyclinB (unknown origin) at 1 uM relative to control; assay type: protein-complex assay
Mus musculus [24] = experiment: Antiarthritic activity against collagen-induced arthritis DBA/1J mouse model assessed as SCF level in serum at 50 mg/kg, po measured for 4 hrs by luminex analysis (reference value: 672.4 +/- 242.2 ng/ml); assay type: functional
[25] = molecular target: G protein-coupled receptor kinase 5 (Homo sapiens) (UniProt P34947); experiment: Inhibition of GRK5 (unknown origin) at 1 uM relative to control
Sequence of G protein-coupled receptor kinase 5 (Homo sapiens) (P34947 whole entry, looked up): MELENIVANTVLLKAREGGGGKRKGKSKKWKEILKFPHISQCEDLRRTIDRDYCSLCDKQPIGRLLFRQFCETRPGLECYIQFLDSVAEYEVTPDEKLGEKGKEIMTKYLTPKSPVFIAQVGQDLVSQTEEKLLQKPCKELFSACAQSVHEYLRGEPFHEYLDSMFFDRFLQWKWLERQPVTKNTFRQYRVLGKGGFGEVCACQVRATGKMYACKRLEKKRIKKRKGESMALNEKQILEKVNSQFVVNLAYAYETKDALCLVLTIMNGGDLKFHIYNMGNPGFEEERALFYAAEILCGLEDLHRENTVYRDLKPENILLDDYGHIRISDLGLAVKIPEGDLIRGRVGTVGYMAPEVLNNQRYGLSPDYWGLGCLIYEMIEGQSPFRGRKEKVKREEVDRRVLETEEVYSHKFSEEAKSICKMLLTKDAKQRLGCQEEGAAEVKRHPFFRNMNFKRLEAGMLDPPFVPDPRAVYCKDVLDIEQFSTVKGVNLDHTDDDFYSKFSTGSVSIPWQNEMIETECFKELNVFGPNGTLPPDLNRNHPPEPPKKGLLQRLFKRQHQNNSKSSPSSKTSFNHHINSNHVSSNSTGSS

[26] = molecular target: Tyrosine-protein kinase receptor UFO (Homo sapiens) (UniProt P30530); experiment: Inhibition of Axl (unknown origin) at 1 uM relative to control
[27] = molecular target: Death-associated protein kinase 3 (Homo sapiens) (UniProt O43293); experiment: Inhibition of ZIPK (unknown origin) at 1 uM relative to control
Sequence of Death-associated protein kinase 3 (Homo sapiens) (O43293 whole entry, looked up): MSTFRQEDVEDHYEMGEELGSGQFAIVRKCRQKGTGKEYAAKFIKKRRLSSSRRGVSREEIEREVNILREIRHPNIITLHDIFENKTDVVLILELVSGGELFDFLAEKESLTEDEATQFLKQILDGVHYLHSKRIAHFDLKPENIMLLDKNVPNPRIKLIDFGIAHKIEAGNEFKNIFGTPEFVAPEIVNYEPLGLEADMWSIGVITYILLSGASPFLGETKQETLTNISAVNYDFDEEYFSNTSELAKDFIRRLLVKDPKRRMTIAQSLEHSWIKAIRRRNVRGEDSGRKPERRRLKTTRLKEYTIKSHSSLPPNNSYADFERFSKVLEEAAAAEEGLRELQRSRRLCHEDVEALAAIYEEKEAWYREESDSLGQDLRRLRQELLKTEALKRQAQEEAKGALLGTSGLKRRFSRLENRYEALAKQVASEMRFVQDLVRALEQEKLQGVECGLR

[28] = molecular target: Serine/threonine-protein kinase BRSK1 (Homo sapiens) (UniProt Q8TDC3); experiment: Inhibition of BrSK1 (unknown origin) at 1 uM relative to control
Sequence of Serine/threonine-protein kinase BRSK1 (Homo sapiens) (Q8TDC3 whole entry): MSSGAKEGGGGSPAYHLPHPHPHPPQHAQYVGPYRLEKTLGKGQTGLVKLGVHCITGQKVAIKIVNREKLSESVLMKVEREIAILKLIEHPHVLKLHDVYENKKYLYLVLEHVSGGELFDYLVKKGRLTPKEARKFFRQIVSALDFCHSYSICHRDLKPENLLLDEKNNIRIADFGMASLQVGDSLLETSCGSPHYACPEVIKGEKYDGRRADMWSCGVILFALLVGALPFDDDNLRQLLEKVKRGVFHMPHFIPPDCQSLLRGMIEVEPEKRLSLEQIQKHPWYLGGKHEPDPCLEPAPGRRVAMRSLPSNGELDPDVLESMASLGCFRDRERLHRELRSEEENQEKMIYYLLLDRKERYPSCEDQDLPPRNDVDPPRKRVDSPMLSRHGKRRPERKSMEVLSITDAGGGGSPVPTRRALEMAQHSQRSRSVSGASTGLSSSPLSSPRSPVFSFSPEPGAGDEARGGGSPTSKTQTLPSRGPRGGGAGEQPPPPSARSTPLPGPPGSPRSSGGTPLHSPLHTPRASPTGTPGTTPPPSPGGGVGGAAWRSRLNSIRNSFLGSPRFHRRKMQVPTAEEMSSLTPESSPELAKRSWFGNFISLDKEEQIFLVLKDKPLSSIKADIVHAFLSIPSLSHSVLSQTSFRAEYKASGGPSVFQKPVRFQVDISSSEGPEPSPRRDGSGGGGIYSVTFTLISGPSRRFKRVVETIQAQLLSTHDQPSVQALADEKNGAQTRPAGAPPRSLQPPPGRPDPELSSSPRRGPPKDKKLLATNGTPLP

[29] = molecular target: Myotonin-protein kinase (Homo sapiens) (UniProt Q09013); experiment: Inhibition of DMPK (unknown origin) at 1 uM relative to control
Rattus norvegicus = experiment: Antiarthritic activity against collagen-induced arthritis Dark Agouti rat model assessed as reduction in clinical score at 0.1 mg/kg, po measured after day 5; assay type: functional, organism-based; conditions: time 5.0 day
[30] = molecular target: Eukaryotic elongation factor 2 kinase (Homo sapiens) (UniProt O00418); experiment: Inhibition of eEF2K (unknown origin) at 1 uM relative to control
Homo sapiens = species: Homo sapiens; experiment: Inhibition of PKB3 (unknown origin) at 1 uM relative to control
[31] = Half life in Sprague-Dawley rat at 1 mg/kg, iv measured upto 8 hrs by LC-MS analysis; assay type: ADME, organism-based; conditions: in vivo
[32] = molecular target: MAP kinase-interacting serine/threonine-protein kinase 2 (Homo sapiens, UniProt Q9HBH9); experiment: Inhibition of MNK2 (unknown origin)
Mus musculus [33] = experiment: Antiarthritic activity against collagen-induced arthritis DBA/1J mouse model assessed as reduction in MX1 level in whole blood at 50 mg/kg, po measured for 2 weeks by luminex analysis; assay type: functional, organism-based
[34] = Clearance in Sprague-Dawley rat at 1 mg/kg, iv measured upto 8 hrs by LC-MS analysis; assay type: ADME, organism-based; conditions: in vivo
[35] = molecular target: Serine/threonine-protein kinase D1 (Homo sapiens) (UniProt Q15139); experiment: Inhibition of PKC-mu (unknown origin) at 1 uM relative to control
Sequence of Serine/threonine-protein kinase D1 (Homo sapiens) (Q15139 whole entry): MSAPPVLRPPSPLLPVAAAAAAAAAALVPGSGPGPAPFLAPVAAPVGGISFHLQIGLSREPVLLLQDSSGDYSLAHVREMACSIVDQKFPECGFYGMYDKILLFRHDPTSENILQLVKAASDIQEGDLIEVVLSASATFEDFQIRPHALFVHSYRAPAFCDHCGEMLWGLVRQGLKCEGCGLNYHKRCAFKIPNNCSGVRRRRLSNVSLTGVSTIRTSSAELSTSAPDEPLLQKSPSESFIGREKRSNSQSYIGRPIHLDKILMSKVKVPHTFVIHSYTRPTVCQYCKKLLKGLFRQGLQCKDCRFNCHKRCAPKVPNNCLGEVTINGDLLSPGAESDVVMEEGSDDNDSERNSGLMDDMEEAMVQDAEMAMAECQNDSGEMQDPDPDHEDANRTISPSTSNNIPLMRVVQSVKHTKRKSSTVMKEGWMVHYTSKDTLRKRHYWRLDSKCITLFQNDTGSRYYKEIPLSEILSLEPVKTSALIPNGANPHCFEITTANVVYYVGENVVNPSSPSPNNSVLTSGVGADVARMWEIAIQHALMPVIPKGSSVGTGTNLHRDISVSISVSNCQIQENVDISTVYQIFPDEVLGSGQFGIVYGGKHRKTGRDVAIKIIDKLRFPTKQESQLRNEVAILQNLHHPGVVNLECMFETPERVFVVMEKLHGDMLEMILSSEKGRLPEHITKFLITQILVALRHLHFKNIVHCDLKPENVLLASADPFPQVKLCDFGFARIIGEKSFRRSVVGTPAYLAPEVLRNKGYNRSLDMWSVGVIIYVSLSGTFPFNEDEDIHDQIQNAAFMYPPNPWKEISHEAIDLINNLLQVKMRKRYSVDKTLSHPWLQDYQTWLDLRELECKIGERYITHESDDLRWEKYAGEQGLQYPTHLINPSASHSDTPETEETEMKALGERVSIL

[36] = molecular target: Death-associated protein kinase 1 (Homo sapiens, UniProt P53355); experiment: Inhibition of DAPK1 (unknown origin)
[37] = molecular target: Serine/threonine-protein kinase PAK 6 (Homo sapiens, UniProt Q9NQU5); experiment: Inhibition of PAK6 (unknown origin)
RPMI-8226 = experiment: Inhibition of human […] cell differentiation assessed as effect on IL-4 mRNA expression at 0.1 to 1 uM by RT-PCR analysis; assay type: functional, cell-based; conditions: dose 0.1-1 µM

For `O=C(Nc1nc2cccc(-c3ccc(CN4CCS(=O)(=O)CC4)cc3)n2n1)C1CC1` [FILGOTINIB], the Activity (Mus musculus [1]) was “Active”, the inhibition [2] was 10% and the inhibition [3] was -7%. The Activity (Mus musculus [4]) was 7.8 ng/mL, the inhibition [5] was 14% and the bioavailability [6] was ~100%. For the same compound, the Activity (Mus musculus [7]) was “Active”, the inhibition [8] was -6% and the inhibition [9] was -7%. The Vd [10] was 1.8 L/kg, the inhibition [11] was -3% and the inhibition [12] was 23%. For the same compound, the inhibition [13] was 6%, the Activity (Mus musculus [14]) was “Active” and the Activity (Mus musculus [15]) was “Active”. For the same compound, the IC50 [16] was > 10 µM, the inhibition [17] was -2% and the IC50 [18] was > 10 µM. The inhibition [19] was 26%, the IC50 [20] was > 10 µM and the Tmax [21] was ~1 h. For the same compound, the inhibition [22] was 0%, the inhibition [23] was 7% and the Activity (Mus musculus [24]) was 422.6 ng/mL. For the same compound, the inhibition [25] was -10%, the inhibition [26] was -5% and the inhibition [27] was 3%. For the same compound, the inhibition [28] was -5%, the inhibition [29] was -4% and the Activity (Rattus norvegicus) was “Active”. It also gave an inhibition [30] of -4%, an inhibition (Homo sapiens) of -6% and a half-life [31] of 96 min. For the same compound, the IC50 [32] was > 10 µM, the Activity (Mus musculus [33]) was “inactive” and the clearance [34] was 23.3 mL/min/kg. The inhibition [35] was -10%, the IC50 [36] was > 10 µM and the IC50 [37] was > 10 µM. For the same compound, the inhibition (RPMI-8226) was “Active”.

Reference: ChEMBL document CHEMBL5678809, “Preclinical characterization of GLPG0634, a selective inhibitor of JAK1, for the treatment of inflammatory diseases” (J Immunol, 2013)
